Assay results: patent publication US20150037351A1, “NOVEL THERAPEUTIC TARGET FOR THE PREVENTION OF TUMOUR METASTASIS” (MAX-PLANCK-GESELLSCHAFT ZUR FORDERUNG DER WISSENSCHAFTEN …, priority 2012, published 2015)

What was measured:
MS1 endothelial cells = assay: morphology of the endothelial monolayer (VE-cadherin/F-actin staining, discontinuous cellular junctions); assay type: cell-based, mouse
Experimental: (§1) The permeability assay was performed as described for the transwell assay with some modifications. Briefly, MS1 cells were cultured on transwell filters and the supernatant of platelets alone or platelets stimulated with tumour cells was mixed 1:1 with TB containing 2 mg/ml 70 kDa FITC-DX of which 50 μl were added to the upper compartment in the absence or presence of apyrase (20 U/ml). 250 μl TB were added to the lower compartment. After 90 min, the amount of passed FITC-DX to the lower compartment was measured (FlexStation3, Molecular Devices). For visualization of changes in the endothelial barrier, MS1 cells were stimulated for 1 h with supernatants from tumour cells alone or from tumour cells after stimulation with platelets in the absence or presence of apyrase (20 U/ml). Cells were further processed for staining and imaging
Cells or tissues were fixed with 4% para-formaldehyde. Tissues were further cryopreserved in 30% sucrose (Sigma), embedded in OCT (Fisher Scientific), and cryosectioned at 16 μm. Cells or sections were stained with rat anti-VE-Cadherin (BD Pharmingen) and Alexa Fluor (AF) 594- (Molecular Probes) or Cy5- (Dianova) conjugated secondary antibodies. DAPI (Sigma) was used to stain cell nuclei, and AF488-conjugated phalloidin (Molecular Probes) to stain F-actin. Images were acquired using a Leica SP5 confocal microscope and analyzed using ImageJ (NIH).

[1] = system: MS1 endothelial cell layer; assay: endothelial barrier permeability assay (FITC-dextran); assay type: cell-based, mouse
Experimental: as §1

P2Y2 receptors [2] = molecular target: T1, P2Y2 receptors (Homo sapiens, UniProt P41231); settings: cited from earlier work
T1 sequence (P41231 whole entry): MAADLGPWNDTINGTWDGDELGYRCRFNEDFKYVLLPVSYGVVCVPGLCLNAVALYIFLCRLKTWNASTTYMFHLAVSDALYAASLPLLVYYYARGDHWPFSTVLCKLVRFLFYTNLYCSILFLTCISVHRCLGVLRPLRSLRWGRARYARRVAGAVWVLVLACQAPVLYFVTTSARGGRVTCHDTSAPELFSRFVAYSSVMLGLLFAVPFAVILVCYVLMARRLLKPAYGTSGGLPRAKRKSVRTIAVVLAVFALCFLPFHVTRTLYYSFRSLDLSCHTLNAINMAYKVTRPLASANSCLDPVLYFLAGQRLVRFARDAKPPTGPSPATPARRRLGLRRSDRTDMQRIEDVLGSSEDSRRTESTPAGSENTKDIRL

B16 cells = assay: transwell assay: tumour cell transmigration through an endothelial cell layer; assay type: cell-based, mouse
Experimental: MS1 cells (8×10^3 at seeding in 50 μl) or HUVEC (6×10^3 at seeding in 50 μl) were cultured for 2 days on 96-transwell plates with polyester membranes of 8-μm pore size (Corning) with medium changes every day. For knockdown experiments, 4×10^5 MS1 cells were transfected using Amaxa Nucleofector Kit V with different sets of siRNA against the P2Y2 receptor (Qiagen) and 1.2×10^4 cells in 50 μl were seeded to the up-per compartment. Where indicated, MS1 cells were pre-incubated with 5-BDBD (1 μM) or MRS2500 (100 nM) for 30 min. Before the experiment, exemplary wells of each condition were visually checked by calcein-AM staining of the endothelial monolayer and only plates with 100% confluency were used. For transmigration, the medium from the upper compartment was removed and 50 μl of a 1:1 mixture of platelets (2×10^8/ml) with calcein-AM-labeled tumour cells (8×10^5/ml) in TB was added to the upper compartment alone or with flurbiprofen (100 nM), ketanserin (3 nM) or apyrase (20 […] (10 μM) and 2MeSADP (10 μM) were added in the absence of platelets. For supernatant experiments, human platelets (5×10^7/ml) or mouse platelets (2×10^8/ml) were incubated for 30 min at 37° C. alone or with tumour cells (1.6×10^6/ml) and centrifuged at 350×g for 10 min. The supernatant was mixed 1:1 with TB (for MS1 cells) or cell culture medium (for HUVECs) containing calcein-AM-labeled tumour cells (8×10^5/ml) and 50 μl were added to the upper compartment. In all experiments, 250 μl TB or culture medium were added to the lower compartment, and tumour cells were allowed to transmigrate over night. On the next day, the non-transmigrated tumour cells from the upper compartment were removed and only the transmigrated tumour cells on the lower side of the filter or the bottom of the transwell were imaged (Zeiss Axio Observer.Z1 and Olympus IX81) and quantified with ImageJ (NIH). Each experiment was performed at least 3 times with a minimum of 5 wells per experiment.

P2Y2 receptors [3] = molecular target: T1, P2Y2 receptors; settings: natural ligands of the human P2Y2 receptor; cited from earlier work
[4] = B16 cells on MS1 endothelial cells with platelets, flurbiprofen 100 nM, ketanserin 3 nM, apyrase 20 U/ml

Q: Which tight interendothelial junctions (MS1 endothelial cells; ATP 10 μM, 30 min, MS1 cells) does the source give for `Nc1ncnc2c1ncn2[C@@H]1O[C@H](COP(=O)(O)OP(=O)(O)OP(=O)(O)O)[C@@H](O)[C@H]1O` [ATP] here?
A: loss

Q: And the endothelial permeability ([1]; ATP 10 μM, MS1 monolayer, FITC-dextran)?
A: increase

Q: For `O=c1ccn([C@@H]2O[C@H](COP(=O)(O)OP(=O)(O)OP(=O)(O)O)[C@@H](O)[C@H]2O)c(=O)[nH]1` [UTP], which “agonist efficacy at P2Y2 receptors in comparison to ATP” value (P2Y2 receptors [2]) is on record?
A: full agonist

Q: Which “platelet-dependent facilitation of tumour cell transmigration” value (from here on “platelet-dependent facilitation”) (B16 cells; 0.1 µM) does the source give for `CC(C(=O)O)c1ccc(-c2ccccc2)c(F)c1` (stereo not shown) [flurbiprofen] here?
A: no effect

Q: For apyrase, which “loss of tight interactions of endothelial cells in the monolayer induced by platelets with tumour cells” value (MS1 endothelial cells; apyrase 20 U/ml, 1 h) is on record?
A: blocked

Q: What about the “platelet-dependent facilitation” value (B16 cells; [4]) of the same compound?
A: ablated

Q: And the “diffusion of FITC-labeled dextran over an endothelial cell layer enhanced by platelets with tumour cells” value ([1]; apyrase 20 U/ml, 90 min)?
A: blocked

Q: What does the source list for `Nc1ncnc2c1ncn2[C@@H]1O[C@H](COP(=O)(O)OP(=O)(O)O)[C@@H](O)[C@H]1O` [ADP]?
A: EC50 (P2Y2 receptors [3]): considerably lower potency; agonist efficacy at P2Y2 receptors in comparison to ATP (P2Y2 receptors [2]): less effective agonist

Q: For `O=C(c1ccc(F)cc1)C1CCN(CCn2c(=O)[nH]c3ccccc3c2=O)CC1` [ketanserin], which “platelet-dependent facilitation” value (B16 cells; [4]) is on record?
A: no effect
